Results from US9999626B2, “Mineral amino-acid complexes of active agents” (Thetis Pharmaceuticals LLC, priority 2014, dated 2018).

Tests used:
[1] = Physical Stability Study (proton NMR after storage exposed to air); assay type: physicochemical; conditions: room temperature
From the text: FIG. 1: […] NMR spectrum of magnesium bis-lysinate bis-EPA taken on the day the compound was synthesized (upper trace) and 60 days later (lower trace) with the compound having been exposed to air at room temperature for the entire 60-day period.
Since the compounds of Formula IA and IB, and the compositions comprising same or mixtures of same, described herein are solids (not oils) and they are very stable against oxidative degradation of the fatty acid component, particularly when compared to the free fatty acid or fatty acid ester forms of the fatty acids, which are highly susceptible to oxidative degradation in their liquid forms and consequently tend to degrade when exposed to air or humidity. […] This is evidenced, for example by no significant change in physical properties, such as flow characteristics, or in chemical properties, as measured by NMR spectroscopy, following days of storage in an open vial at room temperature and standard humidity, for example following from about 7 to 14 days or up to 30, up to 60, or up to 90 days of storage.
The compounds of the invention are remarkably stable compared to omega-3 polyunsaturated free fatty acids, which typically show evidence of oxidative degradation with hours of exposure to atmospheric oxygen. […]

[2] = parameters: species or system rats; conditions: rat, in vivo, po
From the text: The results of a single dose, oral pharmacokinetic study in rats for a compound of Formula III (designated TP-252, Mg-Lys2-EPA2) are shown in Table 3 below. One of the parameters shown in […] is the area under the curve (AUC), which is the integral of a plot of concentration of drug in blood plasma against time. The AUC is proportional to the total amount of the active pharmaceutical agent (API) that reaches the blood circulation. In this example, the API (or analyte) is EPA. AUC and Cmax are given for the compound of Formula III, EPA free fatty acid (EPA FFA), and EPA ethyl ester (EPA EE). EPA ethyl ester is the FDA-approved form of EPA.

CC/C=C\C/C=C\C/C=C\C/C=C\C/C=C\CCCC(=O)O.CC/C=C\C/C=C\C/C=C\C/C=C\C/C=C\CCCC(=O)O.NCCCC[C@H](N)C(=O)[O-].NCCCC[C@H](N)C(=O)[O-].[Mg+2] [TP-252, Magnesium Bis-Lysinate Bis-EPA Dihydrate]
chemically stable (no evidence of oxidation or degradation by proton NMR) [1]: at least 60 days
EPA delivered to the blood plasma compared with equivalent doses of EPA free fatty acid or EPA ethyl ester [2]: significantly more EPA
